According to US20220348592A1, “FUSED HETEROCYCLIC DERIVATIVES” (Janssen Sciences Ireland Unlimited Company, priority 2019, published 2022):

How the values were obtained:
HBV [1] = test: HBV replication inhibition assay (BDNA assay) in HepG2.2.15 cells; format: cell-based; conditions: Hepatitis B virus, HepG2.2.15, 144 h, 6 days treatment, encapsidated HBV DNA in supernatant, BDNA QuantiGene assay
Description: HBV replication inhibition by the disclosed compounds were determined in cells infected or transfected with HBV or cells with stably integrated HBV, such as HepG2.2.15 cells (Sells et al. 1987). In this example, HepG2.2.15 cells were maintained in cell culture medium containing 10% fetal bovine serum (FBS), Geneticin, L-glutamine, penicillin and streptomycin. HepG2.2.15 cells were seeded in 96-well plates at a density of 40,000 cells/well and were treated with serially diluted compounds at a final DMSO concentration of 0.5% either alone or in combination by adding drugs in a checker box format. Cells were incubated with compounds for three days, after which medium was removed and fresh medium containing compounds was added to cells and incubated for another three days. At day 6, supernatant was removed and treated with DNase at 37° C. for 60 minutes, followed by enzyme inactivation at 75° C. for 15 minutes. […] HBV DNA was denatured by addition of 0.2 M NaOH and detected using a branched DNA (BDNA) QuantiGene assay kit according to manufacturer recommendation (Affymetrix). HBV DNA levels were also quantified using qPCR, based on amplification of encapsidated HBV DNA extraction with QuickExtraction Solution (Epicentre Biotechnologies) and amplification of HBV DNA using HBV specific PCR probes that can hybridize to HBV DNA and a fluorescently labeled probe for quantitation. In addition, cell viability of HepG2.2.15 cells incubated with test compounds alone or in combination was determined by using CellTitre-Glo reagent according to the manufacturer protocol (Promega). The mean background signal from wells containing only culture medium was subtracted from all other samples, and percent inhibition at each compound concentration was calculated by normalizing to signals from HepG2.2.15 cells treated with 0.5% DMSO using equation E1. […]
where DMSOave is the mean signal calculated from the wells that were treated with DMSO control (0% inhibition control) and Xi is the signal measured from the individual wells. […]

HBV [2] = test: Anti-HBV activity: intracellular HBV DNA by real-time PCR in HepG2.117 cell line; format: cell-based, Hepatitis B virus; conditions: read-out: HBV-AVE-HepG2.117 EC50 (μM, mean value)
Procedure, shortened: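 HepG2.117 cells, a Tet-off inducible HBV-producing line, induced to replicate HBV and then treated with serially diluted compound. After 3 days, intracellular HBV DNA quantified by real-time PCR with HBV-specific primers and probe.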

[3] = Cytotoxicity in HepG2.117 cells, ATPlite Luminescence Assay; format: cell-based, human; conditions: human, incubated for 3 days, mean value, read-out: TOX-HepG2.117 CC50 (μM, mean value)
Description: (§1) Cytotoxicity of the compounds was tested using HepG2 or HepG2.117 cells, incubated for 3 days in the presence of compounds. The viability of the cells was assessed using the PERKIN ELMER ATPlite Luminescence Assay System.”

HepG2.117 cells = test: as above; format: cell-based, human; conditions: incubated for 3 days, mean value, read-out: TOX-HepG2.117 CC50 (μM, mean value)
Description: as §1

[4] = Hepatitis B virus, 72 h, HepG2.117 cells, 3 days of treatment, intracellular HBV DNA by real-time PCR, mean value

| Structure (SMILES) | EC50 (HBV [2]; [4]) [µM] | CC50 at 3 days [3] [µM] | also measured |
| --- | --- | --- | --- |
| C[C@@H]1Cc2nn3c(c2CN1C(=O)Nc1ccc(F)c(C#N)c1)C(=O)N(C)C[C@H](c1cc[nH]n1)C3 (relative stereo) [Example 7a] | – | – | EC50 (HBV [1]): 37 nM |
| CC(C)N1CCn2nc3c(c2C1=O)CN(C(=O)c1ccc(Cl)c(Cl)c1)CC3 [Compound 2, 2-(3,4-Dichlorobenzoyl)-9-(propan-2-yl)-1,2,3,4,8,9-hexahydropyrido[4′,3′:3,4]pyrazolo[1,5-a]-pyrazin-10(7H)-one] | 1.15 | > 50 | melting point: 190 °C |
| C[C@@H]1Cc2nn3c(c2CN1C(=O)Nc1ccc(F)c(C#N)c1)C(=O)N(C)CC(c1cc[nH]n1)C3 (single isomer, unassigned) [Example 9a, (3R,8R*)—N-(3-Cyano-4-fluorophenyl)-3,10-dimethyl-11-oxo-8-(1H-pyrazol-3-yl)-3,4,8,9,10,11-hexahydro-1H-pyrido[4′,3′:3,4]pyrazolo[1,5-a][1,4]diazepine-2(7H)-carboxamide] | – | – | EC50 (HBV [1]): 260 nM |
| CN1CC(c2ccn(C)n2)Cn2nc3c(c2C1=O)CN(C(=O)Nc1ccc(F)c(C#N)c1)CC3 (stereo not shown) [Example 5a, N-(3-Cyano-4-fluorophenyl)-10-methyl-8-(1-methyl-1H-pyrazol-3-yl)-11-oxo-3,4,8,9,10,11-hexahydro-1H-pyrido[4′,3′:3,4]pyrazolo[1,5-a][1,4]diazepine-2(7H)-carboxamide] | – | – | EC50 (HBV [1]): 160 nM |
| O=C1NCCCn2nc3c(c21)CN(C(=O)c1ccc(Cl)c(Cl)c1)CC3 [Compound 33, 2-(3,4-Dichlorobenzoyl)-1,2,3,4,7,8,9,10-octahydro-11H-pyrido[4′,3′:3,4]pyrazolo[1,5-a][1,4]-diazepin-11-one] | 9.61 | > 50 | melting point: 237 °C |
| C[C@@H]1Cc2nn3c(c2CN1C(=O)c1ccc(Cl)c(Cl)c1)C(=O)N(C)OC(CF)C3 (stereo in doubt) [Compound 47, (4*R,9R)-10-(3,4-Dichlorobenzoyl)-4-(fluoromethyl)-2,9-dimethyl-4,5,8,9,10,11-hexahydro-pyrido[4′,3′:3,4]pyrazolo[5,1-d][1,2,5]oxadiazepin-1(2H)-one] | – | – | EC50 (HBV [2]; HepG2.117 cells, 3 days of treatment, intracellular HBV DNA by real-time PCR, mean value): 0.249 µM; CC50 (HepG2.117 cells): 3.63 µM |
| Cc1nccnc1C(C)N1CCn2nc3c(c2C1=O)CN(C(=O)c1ccc(Cl)c(Cl)c1)[C@H](C)C3 (stereo partly shown) [Example C193] | 0.197 | > 50 | – |
| COc1ccc(CN2CCn3nc4c(c3C2=O)CN(C(=O)c2ccc(C(F)F)c(Cl)c2)CC4)cc1 [Example C62] | 0.13 | 9.31 | – |
| CC(c1nncn1C)N1CCn2nc3c(c2C1=O)CN(C(=O)c1ccc(Cl)c(Cl)c1)[C@H](C)C3 (stereo partly shown) [Example C249] | > 2.5 | > 50 | – |
| CC(C)n1ccc(CN2CCn3nc4c(c3C2=O)CN(C(=O)c2ccc(Cl)c(Cl)c2)[C@H](C)C4)n1 [Example C137] | 0.056 | > 50 | – |
| COc1ccc(CN2CCn3nc4c(c3C2=O)CN(C(=O)c2ccc(Cl)c(Cl)c2)CC4)cc1 [Compound 4, 2-(3,4-Dichlorobenzoyl)-9-[(4-methoxyphenyl)methyl]-1,2,3,4,8,9-hexahydropyrido[4′,3′:3,4]-pyrazolo[1,5-a]pyrazin-10(7H)-one] | 0.091 | 17.9 | – |
| C[C@@H]1Cc2nn3c(c2CN1C(=O)c1ccc(Cl)c(Cl)c1)C(=O)N(Cc1cncc(F)c1)CC3 [Example C153] | 0.082 | > 50 | – |
| C[C@@H]1Cc2nn3c(c2CN1C(=O)c1ccc(Cl)c(Cl)c1)C(=O)N(Cc1cc(Cl)cc(C#N)c1)CC3 [Example C161] | 0.051 | > 50 | – |
| Cc1ocnc1CN1CCn2nc3c(c2C1=O)CN(C(=O)c1ccc(Cl)c(Cl)c1)[C@H](C)C3 [Example C229] | 0.438 | > 25 | – |
| Cc1nnc(C(C)N2CCn3nc4c(c3C2=O)CN(C(=O)c2ccc(Cl)c(Cl)c2)[C@H](C)C4)s1 (stereo partly shown) [Example C245] | 0.072 | > 50 | – |
| C[C@@H]1Cc2nn3c(c2CN1C(=O)c1ccc(Cl)c(Cl)c1)C(=O)N(Cc1ccc(OC(F)F)cn1)CC3 [Example C69] | 0.063 | 14.5 | – |
| CC(c1ccc(F)c(F)c1)N1CCn2nc3c(c2C1=O)CN(C(=O)c1ccc(Cl)c(Cl)c1)[C@H](C)C3 (stereo partly shown) [Example C186] | 0.049 | 21.6 | – |
| COc1ccc(C(C)N2CCn3nc4c(c3C2=O)CN(C(=O)c2ccc(Cl)c(Cl)c2)[C@H](C)C4)cc1F (stereo partly shown) [Example C86] | 0.046 | > 50 | – |
| C[C@@H]1Cc2nn3c(c2CN1C(=O)c1ccc(Cl)c(Cl)c1)C(=O)N(Cc1ccncc1)CC3 [Compound 17, (3R)-2-(3,4-Dichlorobenzoyl)-3-methyl-9-[(pyridin-4-yl)methyl]-1,2,3,4,8,9-hexahydropyrido-[4′,3′:3,4]pyrazolo[1,5-a]pyrazin-10(7H)-one] | – | > 50 | EC50 (HBV [2]; Hepatitis B virus, HepG2.117, 72 h): 0.436 µM |
| C[C@@H]1Cc2nn3c(c2CN1C(=O)c1ccc(Cl)c(Cl)c1)C(=O)N(Cc1cnccn1)CC3 [Example C65] | 0.299 | > 50 | – |
| C[C@@H]1Cc2nn3c(c2CN1C(=O)c1ccc(Cl)c(Cl)c1)C(=O)N([C@H](C)c1ccc(F)cc1)CC3 [Compound 25, (3R)-2-(3,4-Dichlorobenzoyl)-9-[(1R)-1-(4-fluorophenyl)ethyl]-3-methyl-1,2,3,4,8,9-hexahydropyrido[4′,3′:3,4]pyrazolo[1,5-a]pyrazin-10(7H)-one] | 0.016 | > 25 | – |
| Cc1cnc(C(C)N2CCn3nc4c(c3C2=O)CN(C(=O)c2ccc(Cl)c(Cl)c2)[C@H](C)C4)o1 (stereo partly shown) [Example C221] | 0.022 | > 50 | – |
| O=C(c1ccc(Cl)c(Cl)c1)N1CCc2nn3c(c2C1)C(=O)N(Cc1nccs1)CC3 [Compound 7, 2-(3,4-Dichlorobenzoyl)-9-[(1,3-thiazol-2-yl)methyl]-1,2,3,4,8,9-hexahydropyrido[4′,3′:3,4]-pyrazolo[1,5-a]pyrazin-10(7H)-one] | 0.399 | > 50 | – |
| Cc1cc(CN2CCn3nc4c(c3C2=O)CN(C(=O)c2ccc(Cl)c(Cl)c2)[C@H](C)C4)nn1C [Example C157] | 0.02 | > 50 | – |
| C[C@@H]1Cc2nn3c(c2CN1C(=O)c1ccc(Cl)c(Cl)c1)C(=O)N(Cc1cnc(Cl)c(F)c1)CC3 [Example C240] | 0.017 | 35.2 | – |
| COc1ccc([C@@H](C)N2CCn3nc4c(c3C2=O)CN(C(=O)c2ccc(Cl)c(Cl)c2)[C@H](C)C4)cc1 [Compound 23, (3R)-2-(3,4-Dichlorobenzoyl)-9-[(1R)-1-(4-methoxyphenyl)ethyl]-3-methyl-1,2,3,4,8,9-hexahydropyrido[4′,3′:3,4]pyrazolo[1,5-a]pyrazin-10(7H)-one] | 0.022 | > 50 | – |
| C[C@@H]1Cc2nn3c(c2CN1C(=O)c1ccc(Cl)c(Cl)c1)C(=O)N(Cc1ccn(CC(F)(F)F)n1)CC3 [Example C135] | 0.1 | > 50 | – |
| COc1ccc(CN2CCn3nc4c(c3C2=O)CN(C(=O)c2cccc(Cl)c2)CC4)cc1 [Example C54] | 1.99 | 13.6 | – |
